The source of these data is patent EP4537820A1, “COMPOUND AND COMBINATIONS COMPRISING SAID COMPOUND TO IMPROVE IMMUNE RESPONSE” (Institut Gustave-Roussy, priority 2023, dated 2025).

The target in one experiment is T1, 20S-REGγ complex (Homo sapiens, UniProt P61289).
T1 construct: purchased Biotechne E-360-050 (20S); E-384-MTO (REGγ); host or cells: 20S from human erythrocytes
Kind of experiment: First confirmatory counter-screen of hits, fluorescence kinetic proteasome activity test. The class given is biochemical. Conditions: counter-screen at 10, 20 and 40µM, 90min kinetic assay. As for the experimental part:
The 3 chemical libraries tested were obtained from the NIH : The Natural Products set (NP.V) consisting of 390 compounds, the Oncology Approved Drugs set (AOD.IX) consisting of 147 FDA-approved compounds and the Diversity set (DIV.VI) consisting of 1584 compounds. Libraries were prepared and screened with a Biomek FXP workstation in 384 well plates. Compounds activity was assessed using a fluorescence activity test of the proteasome using the Bz-VGR-AMC fluorogenic substrate (#BML-BW9375-0005, Enzo Life Sciences). […] After preparation of the mix, plates were incubated for 2h at 37°C before being read on a Spectramax i3 microplate reader from Molecular devices (Excitation wavelength : 345nm; Emission wavelength : 445nm). […]
After QC verification, each plate was normalized to the mean of the VGR control. For every quadruplicate the most different value from the mean was eliminated and the fluorescence mean for each compound was calculated on the 3 remaining values. The percentage of inhibition of a compound was calculated according to, as follows : %Inhibition(compound) = (MeanREG,plate −Meancompound)/(MeanREG,plate −Mean20S,plate) × 100, [formula] for the condition with REG[…]. […]
After conducting the screening and validating the quality control using a custom algorithm, they analyzed the data to select their hits. […]

A further experiment has as its system T2, 20S proteasome.
T2 construct: purified 20S proteasome from human erythrocytes; purchased Biotechne E-360-050; host or cells: human erythrocytes
Description: Proteasome Activity Assay with fluorogenic AMC substrates, without REGγ. The class given is biochemical, human. To be noted: 20S proteasome not in the presence of REGγ, even at high doses. The protocol:
Proteasome Activity Assay - The activity of the 20S and 20S-REGγ proteasomes was followed by fluorescence using the Bz-VGR-AMC (#BML-BW9375-0005, Enzo Life Sciences) substrate at 50µM for tryspin-like activity, the Suc-LLVY-AMC (#BML-P802-0005, Enzo Life Sciences) substrate at 100µM for the chemotrypsin-like activity and the Z-LLE-AMC (#BML-ZW9345-0005, Enzo Life Sciences) substrate at 100µM for the caspase-like activity. Substrates were incubated with 0,5nM of human 20S ((#E-360-050, Biotechne) and 12,5nM of human REGγ or 2nM of human REGαβ with or without compounds at different concentrations. Purified human REGγ and REGGαβ were generously provided by Julien Marcoux and Marie-Pierre Bousquet-Dubouch. Human REGγ and REGαβ were purified according to Le Feuvre et al., 2009 from plasmids kindly provided by Olivier Coux. The activity assay was performed in 96 well plates in a final volume of 80µL. Plates were read every minute for 90 minutes with a FLUOstar plate reader (BMG Labtech). To detect fluorescence, the excitation wavelength was set to 355nm and emission wavelength at 460nm. […]

T1 sequence (P61289 whole entry, one chain of several): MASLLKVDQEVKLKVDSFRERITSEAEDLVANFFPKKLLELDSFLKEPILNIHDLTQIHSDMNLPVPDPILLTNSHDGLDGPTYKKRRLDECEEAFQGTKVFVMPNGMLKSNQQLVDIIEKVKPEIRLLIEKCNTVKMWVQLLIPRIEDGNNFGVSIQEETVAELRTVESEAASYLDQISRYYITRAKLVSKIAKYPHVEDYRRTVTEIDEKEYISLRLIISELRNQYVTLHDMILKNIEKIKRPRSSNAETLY

As for `Cc1ccc(N=Nc2ccc(C)cc2NC(=O)Nc2ccccc2F)cc1` [compound 58], on 20S-REGγ complex, the “inhibition of the effect of REGγ on proteasomal protein degradation” value is recorded as “inhibit the effect of REGγ on proteasomal protein degradation”. Further, the “inhibitory effect on the three activities (trypsin-like, caspase-like, chymotrypsin-like)” value in the experiment on 20S proteasome was “did not exhibit any inhibitory effect”.
